# In patent publication US8058295B2, “Cystic fibrosis transmembrane conductance regulator protein inhibitors and uses thereof” (The Regents of the University of California, priority 2002, dated 2011):
# Entries after “also recorded” stand apart in the source; their conditions may differ.
# Tests used:
# [1] = test system: Calcium-sensitive Cl^− channels; assay: UTP-stimulated Ca^2+-dependent Cl^− secretion, short-circuit current in human bronchial epithelial cells; format: cell-based
# Excerpt: Two non-CFTR Cl^− channels were studied.
# water channel (AQP1) = molecular target: T1, water channel (AQP1) (Homo sapiens, UniProt P29972); assay: Water channel block; conditions: 5 μM
# T1 sequence (P29972 1-269): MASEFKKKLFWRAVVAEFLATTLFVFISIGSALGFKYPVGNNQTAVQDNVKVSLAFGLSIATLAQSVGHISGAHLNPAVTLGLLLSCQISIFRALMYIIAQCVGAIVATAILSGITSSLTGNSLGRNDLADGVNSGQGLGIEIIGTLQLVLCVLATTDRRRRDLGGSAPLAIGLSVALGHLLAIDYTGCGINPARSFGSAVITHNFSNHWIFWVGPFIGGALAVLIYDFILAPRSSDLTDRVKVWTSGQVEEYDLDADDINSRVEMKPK
# [2] = molecular target: T2, Na^+/H^+ exchanger (NHE3) (Homo sapiens, UniProt P48764); assay: Na^+/H^+ exchanger block; conditions: 5 μM
# T2 sequence (P48764 26-834): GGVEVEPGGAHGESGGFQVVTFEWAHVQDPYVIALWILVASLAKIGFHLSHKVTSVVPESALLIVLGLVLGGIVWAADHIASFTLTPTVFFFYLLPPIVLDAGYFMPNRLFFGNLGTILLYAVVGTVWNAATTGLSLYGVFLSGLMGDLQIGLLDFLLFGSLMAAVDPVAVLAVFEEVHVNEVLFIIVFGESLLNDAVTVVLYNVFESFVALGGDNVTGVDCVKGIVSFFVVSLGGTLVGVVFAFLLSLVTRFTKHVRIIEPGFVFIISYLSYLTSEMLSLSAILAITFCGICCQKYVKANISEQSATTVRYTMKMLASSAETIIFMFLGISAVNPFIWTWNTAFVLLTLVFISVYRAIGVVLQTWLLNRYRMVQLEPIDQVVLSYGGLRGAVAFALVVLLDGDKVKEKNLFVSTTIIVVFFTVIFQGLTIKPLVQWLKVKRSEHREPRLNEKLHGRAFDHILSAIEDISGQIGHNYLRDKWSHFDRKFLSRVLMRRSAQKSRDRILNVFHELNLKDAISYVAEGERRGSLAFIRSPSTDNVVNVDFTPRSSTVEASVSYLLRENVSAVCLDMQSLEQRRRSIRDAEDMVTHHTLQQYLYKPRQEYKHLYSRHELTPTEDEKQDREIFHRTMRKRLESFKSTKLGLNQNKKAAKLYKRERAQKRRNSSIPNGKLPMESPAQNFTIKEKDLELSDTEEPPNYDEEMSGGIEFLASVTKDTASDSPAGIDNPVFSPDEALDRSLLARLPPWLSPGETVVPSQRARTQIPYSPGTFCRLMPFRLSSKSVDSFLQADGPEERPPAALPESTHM
# Animal toxicity in mice = format: in vivo
# [3] = test system: cholera toxin-induced intestinal fluid secretion; design: species or system mice; conditions: mouse, in vivo, ip
# [4] = Analysis of inhibitor metabolism by thin layer chromatography and autoradiography; format: in vivo, mice; conditions: urine, serum, bile, liver homogenate; TLC autoradiography
# Excerpt: Film was exposed for autoradiography for 48 hr (left panel) and 12 hr (right panel).
# Aliquots of bodily fluids (plasma, urine, bile) and liver homogenate were spotted onto Silica plates and resolved by thin layer chromatography using a ethyl acetate:hexane:methanol (1:1:0.1) solvent system which gave rf ˜0.5 for the original inhibitor.
# CFTR = CFTR (Homo sapiens, UniProt P13569); assay: Short-circuit current in T84 colonic epithelial cells
# [5] = intraperitoneal 1000 μg/kg daily for 7 days
# Sequence of CFTR (P13569 whole entry): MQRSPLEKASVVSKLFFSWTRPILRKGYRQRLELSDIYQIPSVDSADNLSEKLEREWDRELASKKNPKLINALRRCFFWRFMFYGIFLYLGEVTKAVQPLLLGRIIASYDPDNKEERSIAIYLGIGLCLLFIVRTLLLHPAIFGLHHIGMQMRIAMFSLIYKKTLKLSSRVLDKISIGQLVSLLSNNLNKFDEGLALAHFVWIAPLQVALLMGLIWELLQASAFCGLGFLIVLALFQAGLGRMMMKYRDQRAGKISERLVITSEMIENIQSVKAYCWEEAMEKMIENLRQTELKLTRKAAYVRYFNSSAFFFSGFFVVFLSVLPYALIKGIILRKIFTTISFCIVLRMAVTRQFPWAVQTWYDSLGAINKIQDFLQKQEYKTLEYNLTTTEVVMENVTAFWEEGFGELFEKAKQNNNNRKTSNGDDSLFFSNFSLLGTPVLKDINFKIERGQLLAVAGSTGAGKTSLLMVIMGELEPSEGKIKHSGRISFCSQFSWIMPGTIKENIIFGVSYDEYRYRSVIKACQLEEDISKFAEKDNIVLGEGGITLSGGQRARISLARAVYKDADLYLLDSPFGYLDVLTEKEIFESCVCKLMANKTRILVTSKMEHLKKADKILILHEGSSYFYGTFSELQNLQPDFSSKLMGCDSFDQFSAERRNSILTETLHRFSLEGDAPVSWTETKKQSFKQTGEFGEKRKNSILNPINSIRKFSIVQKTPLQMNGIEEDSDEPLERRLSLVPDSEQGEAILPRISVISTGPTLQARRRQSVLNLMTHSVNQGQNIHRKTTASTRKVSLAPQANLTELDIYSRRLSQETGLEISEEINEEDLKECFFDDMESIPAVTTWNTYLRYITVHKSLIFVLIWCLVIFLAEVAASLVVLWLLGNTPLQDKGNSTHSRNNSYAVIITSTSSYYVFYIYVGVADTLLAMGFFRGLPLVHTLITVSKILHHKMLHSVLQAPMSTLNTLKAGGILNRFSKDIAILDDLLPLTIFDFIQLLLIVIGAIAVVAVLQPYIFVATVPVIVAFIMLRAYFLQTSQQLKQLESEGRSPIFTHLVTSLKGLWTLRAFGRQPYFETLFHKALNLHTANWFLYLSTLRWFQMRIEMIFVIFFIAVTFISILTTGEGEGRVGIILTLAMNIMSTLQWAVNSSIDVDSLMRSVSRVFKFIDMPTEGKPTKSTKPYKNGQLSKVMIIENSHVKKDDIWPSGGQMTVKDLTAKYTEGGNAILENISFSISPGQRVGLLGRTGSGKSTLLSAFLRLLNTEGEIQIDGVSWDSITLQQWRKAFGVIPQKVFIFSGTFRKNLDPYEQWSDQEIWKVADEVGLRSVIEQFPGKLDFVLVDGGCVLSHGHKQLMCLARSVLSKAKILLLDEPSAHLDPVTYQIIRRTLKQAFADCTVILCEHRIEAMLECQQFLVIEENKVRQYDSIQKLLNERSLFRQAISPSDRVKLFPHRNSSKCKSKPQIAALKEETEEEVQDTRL
smiles,measurement,setting,value
"O=C(O)c1ccc(/C=C2\SC(=S)N(c3cccc(C(F)(F)F)c3)C2=O)cc1 [CFTRinh-172, 3-[(3-trifluoromethyl)phenyl]-5-[(4-carboxyphenyl)methylene]-2-thioxo-4-thiazolidinone]",inhibition of Ca^2+ activated secretion,"[1]; 5 μM, UTP 100 μM",did not inhibit
same,maximal UTP-dependent short-circuit current,"[1]; in presence of 5 μM inhibitor (SE, n=4)",10.0±0.2 μA/cm^2
same,block of water channel (AQP1),water channel (AQP1),did not block
same,block of Na^+/H^+ exchanger (NHE3),[2],did not block
same,food and water intake,Animal toxicity in mice; [5],not diminished
same,overt toxicity,Animal toxicity in mice; [5],did not cause overt toxicity
same,"serum electrolyte concentrations, glucose, liver function indices, serum creatinine, amylase and hematocrit",Animal toxicity in mice; [5],not changed
same,overt toxicity,Animal toxicity in mice; single systemic dose 10 mg/kg,did not cause overt toxicity
same,fluid accumulation in cholera toxin-treated loops,[3],effectively prevented fluid accumulation; also recorded: significantly reduced fluid secretion to that in saline control loops
same,inhibition of fluid accumulation in cholera toxin-injected loops,[3],~90%
same,inhibition of luminal fluid accumulation,[3],significant inhibition of luminal fluid accumulation; also recorded: much less inhibition
same,t1/2 for persistence of inhibition,[3],9 to 10 h
same,chemical modification (metabolism),[4],did not occur
same,IC50,CFTR,~3000 nM
same,Ki,"CFTR; KI, cells depolarized by high-K^+ basolateral solution",~300 nM
same,Ki,"CFTR; apparent KI, after basolateral permeabilization with amphotericin B, Cl^− gradient",300 nM
same,Ki,"CFTR; apparent KI, non-permeabilized T84 cells",~3000 nM
